In this assay the test system is AMPK. Briefly: AMPK activation assay (enzyme-linked immunosorbent assay). Format: cell-based. The procedure, abridged: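 Activator screen performed per well-known kit methods.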

SMILES strings stand for the structures. pEC50: −log10 of the molar value.

Broadly, the pEC50 is the EC50 on a negative log10 scale, so that one unit is a factor of ten. Low readings indicate a high EC50, high ones a low EC50. Turning to `N#Cc1ccc(CN2CCC(NC(=O)c3ccc(C(=O)N4CCC(Cc5ccc(C(N)=O)cc5)CC4)cn3)CC2)cc1` [Compound 141, 5-(4-(4-carbamoylbenzyl)piperidine-1-carbonyl)-N-(1-(4-cyanobenzyl)piperidin-4-yl)picolinamide], the negative-log EC50 (pEC50) was 6.00 to 6.30.
On to `N#Cc1ccc(CN2CCC(NC(=O)c3ccc(C(=O)N4CCC(Oc5ccc(F)cc5F)CC4)nc3)CC2)cc1` [Compound 345, N-(1-(4-cyanobenzyl)piperidin-4-yl)-6-(4-(2,4-difluorophenoxy)piperidine-1-carbonyl)nicotinamide], for which the pEC50 is over 6.30.
`N#Cc1ccc(CN2CCC(NC(=O)c3ccc(C(=O)N4CCC(Cc5ccccc5)CC4)cn3)CC2)cc1` [Compound 124, 5-(4-benzylpiperidine-1-carbonyl)-N-(1-(4-cyanobenzyl)piperidin-4-yl)picolinamide] showed a pEC50 of over 6.30.
The compound `N#Cc1ccc(OC2CCN(C(=O)c3ccc(C(=O)N[C@H]4CC[C@@H](Oc5ccc(F)cc5)CC4)nc3)CC2)cc1` [Compound 303, 5-(4-(4-cyanophenoxy)piperidine-1-carbonyl)-N-((cis)-4-(4-fluorophenoxy)cyclohexyl)picolinamide] gave a pEC50 of over 6.30.
Take `N#Cc1ccc(CN2CCC(NC(=O)c3ccc(C(=O)N4CCC(Oc5ccc(C(=O)C6CC6)cc5)CC4)nc3)CC2)cc1` [Compound 456, N-(1-(4-cyanobenzyl)piperidin-4-yl)-6-(4-(4-(cyclopropanecarbonyl)phenoxy)piperidine-1-carbonyl)nicotinamide]: the pEC50 was over 6.30.
For the compound `COc1ccc(CN2CCC(NC(=O)c3ccc(C(=O)N4CCC(Oc5ccc(F)cc5)CC4)cn3)CC2)cc1` [Compound 161, 5-(4-(4-fluorophenoxy)piperidine-1-carbonyl)-N-(1-(4-methoxybenzyl)piperidin-4-yl)picolinamide], the negative logarithm of the EC50 (pEC50) was over 6.30.
The same measure for `CC(C)N1CCN(C(=O)c2ccc(C(=O)N3CCN(CCc4ccccc4)CC3)nc2)CC1` [Compound 91, (4-isopropylpiperazin-1-yl)(6-(4-phenethylpiperazine-1-carbonyl)pyridin-3-yl)methanone]: under 5.00; for `N#Cc1ccc(CN2CCC(NC(=O)c3ccc(C(=O)NC4CCN(c5ccc(C#N)cc5)CC4)cn3)CC2)cc1` [Compound 166, N2-(1-(4-cyanobenzyl)piperidin-4-yl)-N5-(1-(4-cyanophenyl)piperidin-4-yl)pyridine-2,5-dicarboxamide]: over 6.30.
With `O=C(Nc1ccc(Oc2ccc(F)cc2)nc1)c1ccc(C(=O)N2CCC(C(=O)c3ccc(N4CCOCC4)cc3)CC2)cn1` [Compound 379, N-(6-(4-fluorophenoxy)pyridin-3-yl)-5-(4-(4-morpholinobenzoyl)piperidine-1-carbonyl)picolinamide] the figure was over 6.30; with `COc1ccc(N2CCC(Nc3ccc(C(=O)NC4CCN(Cc5ccc(C#N)cc5)CC4)nc3)CC2)cc1` [Compound 275, N-(1-(4-cyanobenzyl)piperidin-4-yl)-5-(1-(4-methoxyphenyl)piperidin-4-ylamino)picolinamide], over 6.30; with `COc1cccc(CC2CCN(C(=O)c3ccc(C(=O)NC4CCN(Cc5ccc(C#N)cc5)CC4)nc3)CC2)c1` [Compound 147, N-(1-(4-cyanobenzyl)piperidin-4-yl)-5-(4-(3-methoxybenzyl)piperidine-1-carbonyl)picolinamide], over 6.30.
With `O=C(c1ccc(Nc2ccc(Cc3ccccc3)cc2)nc1)N1CCN(Cc2ccc(F)cc2)CC1` [Compound 30] the figure was 5.30 to 6.00; with `CC(=O)c1ccc(Oc2ccc(NC(=O)c3ccc(C(=O)N4CCC(Oc5ccc(C(=O)N(C)C)cc5)CC4)nc3)cn2)cc1` [Compound 488, N-(6-(4-acetylphenoxy)pyridin-3-yl)-6-(4-(4-(dimethylcarbamoyl)phenoxy)piperidine-1-carbonyl)nicotinamide], over 6.30.
The compound `CS(=O)(=O)c1ccc(OC2CCN(C(=O)c3ccc(C(=O)NC4CCN(Cc5cccc(OC(F)(F)F)c5)CC4)nc3)CC2)cc1` [Compound 242, 5-(4-(4-(methylsulfonyl)phenoxy)piperidine-1-carbonyl)-N-(1-(3-(trifluoromethoxy)benzyl)piperidin-4-yl)picolinamide] had a negative-log EC50 (pEC50) of over 6.30.
The same measure for `N#Cc1ccc(OC2CN(C(=O)c3ccc(C(=O)NC4CCN(Cc5cc(F)cc(F)c5)CC4)nc3)C2)cc1` [Compound 313, 5-(3-(4-cyanophenoxy)azetidine-1-carbonyl)-N-(1-(3,5-difluorobenzyl)piperidin-4-yl)picolinamide]: over 6.30; for `COc1ccc(CN2CCC(NC(=O)c3ccc(C(=O)N4CCC(Oc5cccc(NC(C)=O)c5)CC4)nc3)CC2)cc1` [Compound 412, 6-(4-(3-acetamidophenoxy)piperidine-1-carbonyl)-N-(1-(4-methoxybenzyl)piperidin-4-yl)nicotinamide]: 5.30 to 6.00; for `CS(=O)(=O)Nc1ccc(OC2CCN(C(=O)c3ccc(C(=O)NC4CCN(Cc5ccc(C#N)cc5)CC4)cn3)CC2)cc1` [Compound 367, N-(1-(4-cyanobenzyl)piperidin-4-yl)-6-(4-(4-(methylsulfonamido)phenoxy)piperidine-1-carbonyl)nicotinamide]: under 5.00.
The same measure for `N#Cc1ccc(CN2CCC(NC(=O)c3ccc(C(=O)N4CCN(c5ccc(S(=O)(=O)C(F)(F)F)cc5)CC4)cn3)CC2)cc1` [Compound 257, N-(1-(4-cyanobenzyl)piperidin-4-yl)-5-(4-(4-(trifluoromethylsulfonyl)phenyl)piperazine-1-carbonyl)picolinamide]: over 6.30; for `N#Cc1ccc(CN2CCC(NC(=O)c3ncc(C(=O)N4CCN(Cc5ccc(F)cc5)CC4)cc3CCCNC(=O)CCOCCOCCOCCOCCNC(=O)CCCC[C@@H]3SC[C@@H]4NC(=O)N[C@@H]43)CC2)cc1` [Compound 291, N-(1-(4-cyanobenzyl)piperidin-4-yl)-3-(5,21-dioxo-25-((3aS,4S,6aR)-2-oxohexahydro-1H-thieno[3,4-d]imidazol-4-yl)-8,11,14,17-tetraoxa-4,20-diazapentacosyl)-5-(4-(4-fluorobenzyl)piperazine-1-carbonyl)picolinamide]: over 6.30.
For the compound `N#Cc1ccc(OC2CN(C(=O)c3ccc(C(=O)Nc4ccc(Oc5ccc(F)cc5)nc4)nc3)C2)cc1` [Compound 210, 5-(3-(4-cyanophenoxy)azetidine-1-carbonyl)-N-(6-(4-fluorophenoxy)pyridin-3-yl)picolinamide], the pEC50 is under 5.00.
The same measure for `N#Cc1ccc(CN2CCC(NC(=O)c3ccc(C(=O)N4CCC(Oc5ccc(C#N)cc5)CC4)nc3)CC2)cc1` [Compound 323, N-(1-(4-cyanobenzyl)piperidin-4-yl)-6-(4-(4-cyanophenoxy)piperidine-1-carbonyl)nicotinamide]: over 6.30; for `N#Cc1ccc(CN2CC[C@@H](NC(=O)c3ccc(C(=O)N4CCN(Cc5ccc(F)cc5)CC4)cn3)[C@@H](F)C2)cc1` [Compound 100]: over 6.30; for `O=C(Nc1cccc(-c2ccccc2)c1)c1ccc(C(=O)N2CCN(Cc3ccc(F)cc3)CC2)cn1` [Compound 12]: 5.00 to 5.30.
The same measure for `N#Cc1ccc(CN2CCC(NC(=O)c3ccc(C(=O)N4CCN(C(=O)c5ccccc5)CC4)cn3)CC2)cc1` [Compound 80, 5-(4-benzoylpiperazine-1-carbonyl)-N-(1-(4-cyanobenzyl)piperidin-4-yl)picolinamide]: 5.30 to 6.00; for `COc1ccc(Oc2ccc(NC(=O)c3ccc(C(=O)N4CCN(Cc5ccc(F)cc5)CC4)cn3)cc2)cc1` [Compound 54, 5-(4-(4-fluorobenzyl)piperazine-1-carbonyl)-N-(4-(4-methoxyphenoxy)phenyl)picolinamide]: over 6.30; for `COc1ccc(OC2CCN(C(=O)c3ccc(C(=O)NC4CCN(Cc5ccc(C#N)cc5)CC4)cn3)CC2)c(NS(C)(=O)=O)c1` [Compound 389, N-(1-(4-cyanobenzyl)piperidin-4-yl)-6-(4-(4-methoxy-2-(methylsulfonamido)phenoxy)piperidine-1-carbonyl)nicotinamide]: 5.30 to 6.00.
Compound `N#Cc1ccc(CN2CCC(NC(=O)c3ccc(N4CCCC(Oc5ccc(C#N)cc5)C4)cn3)CC2)cc1` (stereo not drawn) [Compound 265, N-(1-(4-cyanobenzyl)piperidin-4-yl)-5-(3-(4-cyanophenoxy)piperidin-1-yl)picolinamide] gave a negative logarithm of the EC50 (pEC50) of 5.30 to 6.00.
The same measure for `O=C(Nc1ccc(-c2ccccc2)cc1)c1ccc(C(=O)NC2CCN(Cc3ccccc3)CC2)nc1` [Compound 105, N2-(1-benzylpiperidin-4-yl)-N5-(biphenyl-4-yl)pyridine-2,5-dicarboxamide]: under 5.00; for `COc1ccc(CN2CCC(NC(=O)c3ccc(C(=O)N4CCC(Oc5cccc(NC(=O)C6CC6)c5)CC4)nc3)CC2)cc1` [Compound 435, 6-(4-(3-(cyclopropanecarboxamido)phenoxy)piperidine-1-carbonyl)-N-(1-(4-methoxybenzyl)piperidin-4-yl)nicotinamide]: over 6.30; for `CS(=O)(=O)c1ccc(N2CCC(NC(=O)c3ccc(C(=O)N4CCC(Oc5ccc(C#N)cc5)CC4)nc3)CC2)cc1` [Compound 420, 6-(4-(4-cyanophenoxy)piperidine-1-carbonyl)-N-(1-(4-(methylsulfonyl)phenyl)piperidin-4-yl)nicotinamide]: 5.30 to 6.00.
With `N#Cc1ccc(OC2CCN(C(=O)c3ccc(C(=O)NC4CCN(c5ccc(F)cc5)CC4)cn3)CC2)cc1` [Compound 422, 6-(4-(4-cyanophenoxy)piperidine-1-carbonyl)-N-(1-(4-fluorophenyl)piperidin-4-yl)nicotinamide] the figure was 5.30 to 6.00; with `N#Cc1ccc(OC2CCN(C(=O)c3ccc(C(=O)NC4CCN(Cc5cc(F)cc(F)c5)CC4)cn3)CC2)cc1` [Compound 322, 6-(4-(4-cyanophenoxy)piperidine-1-carbonyl)-N-(1-(3,5-difluorobenzyl)piperidin-4-yl)nicotinamide], over 6.30.
`CC(C)(C)OC(=O)NCC#Cc1cc(C(=O)N2CCN(Cc3ccc(F)cc3)CC2)cnc1C(=O)NC1CCN(Cc2ccc(C#N)cc2)CC1` [Compound 164, tert-butyl 3-(2-(1-(4-cyanobenzyl)piperidin-4-ylcarbamoyl)-5-(4-(4-fluorobenzyl)piperazine-1-carbonyl)pyridin-3-yl)prop-2-ynylcarbamate] had a pEC50 of 6.00 to 6.30.

For the origin of these results see patent US20150087673A1, “METHODS FOR USING AND BIOMARKERS FOR AMPK-ACTIVATING COMPOUNDS” (RIGEL PHARMACEUTICALS, INC., priority 2013, published 2015).
